Literature values in patent publication EP4759311A1, “TRPM8 INHIBITORS FOR USE IN THE PREVENTION OR TREATMENT OF JOINT DAMAGE, JOINT DEGENERATION AND/OR JOINT INFLAMMATION CAUSED BY OSTEOARTHRITIS” (Dompé farmaceutici SpA, priority 2024, dated 2026).

Biological target: TRPM8 (Homo sapiens, UniProt Q7Z2W7)
Conditions: TRPM8 inhibitor; no method given

Chain of TRPM8 (Q7Z2W7 whole entry, species assumed): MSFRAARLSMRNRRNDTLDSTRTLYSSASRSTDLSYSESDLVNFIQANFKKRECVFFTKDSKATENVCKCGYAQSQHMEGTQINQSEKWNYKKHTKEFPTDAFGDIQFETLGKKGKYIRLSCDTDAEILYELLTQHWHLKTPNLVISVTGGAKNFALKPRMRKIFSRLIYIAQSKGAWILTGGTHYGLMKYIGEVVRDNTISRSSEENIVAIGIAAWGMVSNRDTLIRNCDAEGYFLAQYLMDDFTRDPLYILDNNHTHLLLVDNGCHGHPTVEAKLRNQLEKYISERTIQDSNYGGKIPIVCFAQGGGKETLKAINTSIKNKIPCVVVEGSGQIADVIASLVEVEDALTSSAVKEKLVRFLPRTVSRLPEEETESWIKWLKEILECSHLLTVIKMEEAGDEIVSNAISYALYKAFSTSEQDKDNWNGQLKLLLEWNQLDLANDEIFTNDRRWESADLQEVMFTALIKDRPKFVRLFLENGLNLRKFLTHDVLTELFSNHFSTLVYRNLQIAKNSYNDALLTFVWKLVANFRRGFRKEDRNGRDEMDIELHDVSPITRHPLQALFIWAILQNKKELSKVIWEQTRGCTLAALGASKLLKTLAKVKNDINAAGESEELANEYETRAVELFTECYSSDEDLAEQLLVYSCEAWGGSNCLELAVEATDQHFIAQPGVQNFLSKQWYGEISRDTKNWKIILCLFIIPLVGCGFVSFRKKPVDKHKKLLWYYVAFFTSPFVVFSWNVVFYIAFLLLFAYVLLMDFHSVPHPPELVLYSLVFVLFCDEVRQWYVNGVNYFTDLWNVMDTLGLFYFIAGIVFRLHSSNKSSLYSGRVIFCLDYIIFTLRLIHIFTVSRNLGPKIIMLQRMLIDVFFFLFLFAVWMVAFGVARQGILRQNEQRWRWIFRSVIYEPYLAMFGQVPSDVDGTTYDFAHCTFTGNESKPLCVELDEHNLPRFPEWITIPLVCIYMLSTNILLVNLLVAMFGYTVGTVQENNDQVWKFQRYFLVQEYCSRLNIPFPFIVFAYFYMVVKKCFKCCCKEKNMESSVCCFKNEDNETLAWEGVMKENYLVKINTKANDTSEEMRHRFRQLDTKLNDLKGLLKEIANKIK

IC50	SMILES
5.3 nM	O=C(O)c1ccc(S(=O)(=O)N(Cc2ccc(OC(F)(F)F)cc2)c2ncc(C(F)(F)F)cc2Cl)cc1 [RQ-00203078, 4-[[[3-Chloro-5-(trifluoromethyl)-2-pyridinyl][[4-(trifluoromethoxy)phenyl]methyl]amino]sulfonyl]benzoic acid]
0.2 nM	COC(=O)[C@H](Cc1c[nH]c2ccccc12)N(Cc1ccccc1)Cc1ccccc1 [TRPM8 antagonist 2, N,N-Bis(phenylmethyl)-L-tryptophan methyl ester]
